Test results published in PMC9246869, “Allosteric inhibition of PPM1D serine/threonine phosphatase via an altered conformational state” (Nature Communications, 2022).
Values joined by “and” are separate entries in the source; they are usually repeats but may differ in a detail not shown here. Equal values may be shown once.

Legend:
[1] = Solubility; assay type: physicochemical
[2] = biological target: T1, PPM1D1–420 (Homo sapiens, UniProt O15297); test: Isothermal titration calorimetry (ITC); assay type: binding; details: PPM1D1–420; 25 °C
T1 construct: PPM1D1–420 was PCR-amplified from the synthesized gene with BsaI sites; His(6)-SUMO (N, cleaved yes); made in house; host or cells: E. coli BL21 (DE3)
T1 sequence (O15297 1-420): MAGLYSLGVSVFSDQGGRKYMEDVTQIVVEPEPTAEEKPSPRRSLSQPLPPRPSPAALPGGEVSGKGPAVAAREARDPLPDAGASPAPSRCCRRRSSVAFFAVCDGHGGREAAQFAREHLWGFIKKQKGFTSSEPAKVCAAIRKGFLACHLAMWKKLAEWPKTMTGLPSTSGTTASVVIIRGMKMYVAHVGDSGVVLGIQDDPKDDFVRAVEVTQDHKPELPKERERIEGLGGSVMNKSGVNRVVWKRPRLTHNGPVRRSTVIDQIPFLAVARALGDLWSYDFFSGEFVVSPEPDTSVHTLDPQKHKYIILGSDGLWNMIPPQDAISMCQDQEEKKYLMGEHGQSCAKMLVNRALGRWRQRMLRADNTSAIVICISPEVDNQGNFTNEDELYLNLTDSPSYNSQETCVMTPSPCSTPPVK
Method: Assessments of the analog of GSK2830371 (analog 1d) binding to wild-type and mutant proteins were conducted using an Auto-iTC200 microcalorimeter (Malvern) (see section on synthesis of analog 1d below). The protein was dialyzed extensively into 25 mM HEPES (pH 7.4), 150 mM NaCl, 10 mM MgCl2 and 1 mM TCEP. The dialyzed protein was used to prepare fresh working solutions of protein (20 µM) and analog 1d (200 µM) in 2% DMSO (v/v) in the same buffer. Titrations were performed at 25 °C and consisted of a single initial injection of 0.4 µL, followed by 19 injections of 2 µL of compound into a sample cell containing wild-type or mutant PPM1D, with an interval of 150 s between successive injections. The reference power and stirring speed were set at […] and 1000 RPM, respectively. Heat of dilution and mixing were obtained from injections of analog 1d into ITC buffer lacking protein and subtracted from the integrated data before curve fitting. Thermodynamic data were analyzed using Origin 7.0 software and fitted by non-linear regression to the model for a single binding site.

[3] = biological target: T1, PPM1D1–420; test: Surface plasmon resonance (SPR); assay type: binding
Method: SPR was carried out on the Biacore S200 (GE Healthcare) using Series S sensor chip NTA (GE BR-1005-32). The preparation of the chip surface was conducted according to the manufacturer’s indications. The running buffer contained 50 mM Tris (pH 7.5), 50 mM NaCl, 1 mM MgCl2, 0.5 mM TCEP, 0.005% (v/v) P20 surfactant, and 2% DMSO. PPM1D1–420 and PPM1D∆Flap were run under single-cycle mode due to the slow-off-rate kinetics. The two proteins were immobilized on the chip surface in flow cells 2 and 3 with a signal of ~1500–2000 RU at a rate of 5 μL/min while flow cell 1 was left blank as a reference. The running buffer was injected three times followed by the GSK2830371 analyte in solution. Injections were carried out at a flow rate of 50 μL/min with the analyte in a concentration series of 5-point, 3-fold ending at 400 nM top dose. The association and dissociation phases were monitored for 90 s and 600 s, respectively. Collected data were evaluated using the Biacore S200 Evaluation Software under 1:1 binding mode. PPM1D∆Hinge was run under multi-cycle mode due to its fast-on/fast-off kinetics. The protein was immobilized to give a signal of ~ 3000 RU. GSK2830371 analyte in solution was injected at a flow rate of 90 μL/min in a 10-pt, 2-fold concentration series ending at 15 μM top dose. The association and dissociation phases were monitored for 45 s and 150 s, respectively. Since GSK2830371 had issues with solubility/aggregation at high concentrations that caused artifacts in sensorgrams, only steady-state analysis was performed to extract Kd.

[4] = biological target: T1, PPM1D1–420; test: p38 MAPK enzymatic assay (LC/MS, dephosphorylation of T180); assay type: biochemical; details: PPM1D1–420; full length p38 MAPK substrate, LC/MS
Method: To generate the double phosphorylated form of p38 MAPK for the LC/MS enzymatic PPM1D assay, 20 µM p38 MAPK was incubated with 100 nM MKK6 in 50 mM HEPES pH 7.4, 10 mM ATP, 40 mM MgCl2, and 100 µM TCEP at RT for 2 h. The reaction mixture was diluted 2-fold with 20 mM HEPES pH 7.4, 300 mM NaCl, 100 µM TCEP, and 1 mM MgCl2 and passed over a Superdex 200 26/600 column equilibrated with 20 mM HEPES pH 7.4, 150 mM NaCl, 100 µM TCEP, and 1 mM MgCl2 to remove excess ATP and MKK6 from the phosphorylated p38 MAPK (p38PP) protein. The protein was concentrated and stored in aliquots for single time usage at −80 °C.
The enzymatic activity of the PPM1D constructs was measured by quantifying the dephosphorylation of the substrate protein p38PP by LC/MS. Assays were run in 384-well plates (Axygen; #P-384-120SQ-C) in a final volume of 80 µL per well. The buffer consisted of 20 mM HEPES, 20 mM NaCl, 20 mM MgCl2 and 0.1 mM TCEP, at a pH of 7.5. The reaction was initiated by addition of the p38PP substrate to a solution containing 10 nM PPM1D to a final concentration of 300 nM for p38PP. The plate was then incubated at room temperature and the reaction quenched after 15 min increments with formic acid to a final concentration of 6% (v/v) up to 120 min. For IC50 measurements, the GSK2830371 compound was pre-incubated with the PPM1D constructs in a 2% DMSO-containing buffer for 10 min prior to the addition of the substrate and the reactions were quenched after 2 h. In both experiments, BSA was added to a final concentration of 0.2 µM during the quench step as a carrier protein and injection control for the LC/MS. The plate was then sealed and spun down at 1500 × g for 1 min prior to LC/MS analysis. Plates were analyzed within the same day of the quench step.
Substrate and product detection was achieved by multiple-reaction monitoring (MRM) using a Waters Acquity UPLC chromatography system connected to an Xevo TQ-XS mass spectrometer (Waters, Milford, MA). Source parameters were set as follows: polarity ES+, capillary 2.0 kV, cone voltage, 50 V; collision energy, 5 V; cone gas flow, 200 L/h; collision gas flow, 0.16 mL/min; source temperature, 150 °C; desolvation temperature, 500 °C; and desolvation gas flow, 800 L/h. Analytes were separated using an Agilent PLRP-S Reversed-Phase column (5 µm; 2.1 × 50 mm, 300 Å Agilent Technologies, Santa Clara, CA) at 60 °C. Sample storage temperature was set to 15 °C. Mobile phases consisted of 0.1% (v/v) formic acid (Millipore EMSURE) in LC/MS grade water (JTBaker) and 0.1% v/v formic acid in acetonitrile (Honeywell). Initial column conditions were set to […]. Proteins were eluted using a 1.5 min gradient of 5–98% acetonitrile at 0.4 ml/min. MassLynx and TargetLynx software (Waters, version 4.2) were used for sample acquisition and data analysis, respectively. Analytes were quantified by integration of peak areas under the curve using the transitions 941.10 to 941.05 m/z for P38PP (substrate) and 939.10 to 939.09 m/z for P38P (product). Areas were normalized for instrumental variation by dividing by the BSA peak area (1209.23 to 1209.2 m/z transition) measured in the same well.

NCCCCNC(=O)[C@H](CC1CCCCC1)NC(=O)c1ccc(CNc2cc(Cl)ccn2)s1 [analog 1d]
solubility [1]: > 100 µM
Kd [2]: 10.9 nM and 10 nM
Kd ([3]; PPM1D1–420, single-cycle kinetics for GSK2830371, read-out: Kd (SPR)): 2.7 nM
koff ([3]; SPR kinetics fit, Sup Fig 3B, read-out: koff): 0.0015 s⁻¹
kon ([3]; SPR kinetics fit, Sup Fig 3B, read-out: kon): 578000 M⁻¹ s⁻¹
Steady state curve response ([3]; SPR steady state, [1d] (nM) 4.94E-09): 2.128
IC50 [4]: 22.4 nM
